From US20200079765A1, “SUBSTITUTED HETEROARYL PYRROLONES AND SALTS THEREOF AND USE THEREOF AS HERBICIDAL ACTIVE SUBSTANCES” (Bayer CropScience Aktiengesellschaft, priority 2016, published 2020)

How the values were obtained:
[1] = target: T1, photosystem II (PS II) (Spinacia oleracea, UniProt P69560); assay: Measurement of the PS II activity in thylakoid membranes (DCPIP reduction, Experimental Part 3, Table E1); format: biochemical; details: spinach thylakoid membranes
T1 construct: the chloroplasts were osmotically ruptured and the thylakoid membranes were then obtained by centrifugation; from tissue; host or cells: thylakoid membranes from fresh spinach leaves
Procedure: Cooled fresh spinach leaves were comminuted and homogenized in 50 mM phosphate buffer, pH 6.8. 10 mM KCl, 0.34 M sucrose (sucrose buffer) (blender, 1 g of plant material/ml). The homogenate was subsequently filtered through 4 layers of Miracloth and the chloroplasts were isolated by centrifugation, i.e. 10 min of centrifugation at 4400×g (4° C.). The sediment was suspended in 25 ml of sucrose buffer and re-centrifuged for 10 min at 4400×g (4° C.). The sediment was then suspended in 40 ml of 50 mM phosphate buffer, pH 6.8, 10 mM KCl, without sucrose. In this step, the chloroplasts were osmotically ruptured and the thylakoid membranes were then obtained by centrifugation (10 min, 4400×g, 4° C.). The membrane sediment was finally suspended in about 20 ml of 50 mM phosphate buffer, pH 6.8, 10 mM KCl. Following protein determination and activity determination, the membrane suspension was divided into aliquots and frozen in liquid nitrogen. The aliquots were stored at −80° C. Under these conditions, the photosystem II preparation was storage stable for at least three months. The activity determination of photosystem II (PS II) was then carried out using the following test principle: The electron transfer from PS II to an artificial electron acceptor, 2,6-dichlorophenolindophenol (DCPIP), was measured with exposure to light. The concentration of the blue oxidized form of DCPIP was determined spectrophotometrically at wavelength λ=595 nm. […] The activity determination was carried out in microtiter plates (96 cavities) in a reaction volume of 200 μl. Here, 155 μl of dilute membrane suspension were initially charged in 50 mM of phosphate buffer, pH 6.8, 10 mM KCl. Depending on the activity of the PS II preparation, the dilution was adjusted such that the measurement of the decrease in absorption (λ=595 nm) was linear for at least 10 min. In each case 5 μl solution of the test compounds of a concentration of 100 μM in DMSO were added to the enzyme suspension; controls contained 5 μl DMSO; the final concentration of DMSO in the reaction batch was thus 2.5% (v/v); this concentration had no adverse effect on the enzymatic activity. On each microtiter plate, a known PS II inhibitor, for example metribuzin, was used as standard, which allowed the quality of the PS II test to be assessed. The reaction was started by addition of 40 μl DCPIP solution (600 μM in distilled water); the final concentration of DCPIP was 120 μM. Measurement of absorption was carried out over a period of 10 min at 22° C. and with exposure to light. Using metribuzin as comparative substance, the results for the efficacy of the compounds of the general formula (I) at 100 μM are stated in the table below using the following classification: ++++ (inhibition≥90%), +++ (90%>inhibition≥70%), ++ (70%>inhibition≥50%), + (50%>inhibition≥30%).
Effects of selected compounds of the general formula (I) according to the following table E1: […]

[2] = system: Abutilon theophrasti; assay: Herbicidal post-emergence action (Experimental Part 2, C); format: in vivo; details: post-emergence (Part 2), rated visually after about 3 weeks
Procedure: (§1) Seeds of mono- and dicotyledonous weed plants were placed in plastic pots in sandy loam soil (doubly sown with in each case one species of mono- or dicotyledonous weed plants per pot), covered with soil and cultivated in a greenhouse under controlled growth conditions. 2 to 3 weeks after sowing, the test plants were treated at the one-leaf stage. The compounds of the invention, formulated in the form of wettable powders (WP) or as emulsion concentrates (EC), were applied onto the green parts of the plants as aqueous suspension or emulsion with addition of 0.5% additive at a water application rate of 600 liters per hectare (converted). After the test plants had been kept in the greenhouse under optimum growth conditions for about 3 weeks, the activity of the preparations was rated visually in comparison to untreated controls. For example, 100% activity=the plants have died, 0% activity=like control plants. Tables C1 to C8 below show the effects of selected compounds of the general formula (I) according to Tables I.1 to I.116 on various harmful plants and an application rate corresponding to 1280 g/ha or 320 g/ha, which were obtained by the experimental procedure mentioned above.

[3] = system: Matricaria inodora; assay: as above; format: in vivo; details: post-emergence (Part 2), application rate 1280 g/ha, rated visually after about 3 weeks
Procedure: as §1

[4] = system: Stellaria media; assay: as above; format: in vivo; details: post-emergence (Part 2), application rate 1280 g/ha, rated visually after about 3 weeks
Procedure: as §1

[5] = system: Abutilon theophrasti; assay: Herbicidal pre-emergence action (Experimental Part 2, D); format: in vivo; details: pre-emergence (Part 2), application rate 1280 g/ha, scored visually after about 3 weeks
From the text: (§2) Seeds of mono- and dicotyledonous weed plants were placed in plastic pots in sandy loam soil (doubly sown with in each case one species of mono- or dicotyledonous weed plants per pot) and covered with soil. The compounds of the invention, formulated in the form of wettable powders (WP) or as emulsion concentrates (EC), were then applied onto the surface of the covering soil as aqueous suspension or emulsion with addition of 0.5% additive at a water application rate of 600 liters per hectare (converted). After the treatment, the pots are placed in a greenhouse and kept under good growth conditions for the trial plants. After about 3 weeks, the effect of the preparations was scored visually in comparison with untreated controls as percentages. For example, 100% activity=the plants have died, 0% activity=like control plants. Tables D1 to D8 below show the effects of selected compounds of the general formula (I) according to Tables I.1 to I.116 on various harmful plants and an application rate corresponding to 1280 g/ha or 320 g/ha, which were obtained by the experimental procedure mentioned above.

[6] = system: Lolium rigidum; assay: as above; format: in vivo; details: pre-emergence (Part 2), application rate 1280 g/ha, scored visually after about 3 weeks
From the text: as §2

[7] = system: Matricaria inodora; assay: as above; format: in vivo; details: pre-emergence (Part 2), scored visually after about 3 weeks
From the text: as §2

[8] = system: Poa annua; assay: as above; format: in vivo; details: pre-emergence (Part 2), scored visually after about 3 weeks
From the text: as §2

[9] = system: Setaria viridis; assay: as above; format: in vivo; details: pre-emergence (Part 2), application rate 1280 g/ha, scored visually after about 3 weeks
From the text: as §2

[10] = system: Stellaria media; assay: as above; format: in vivo; details: pre-emergence (Part 2), scored visually after about 3 weeks
From the text: as §2

[11] = system: Amaranthus retroflexus; assay: Pre-emergence herbicidal action (Experimental Part 1, B); format: in vivo; details: application rate 1280 g/ha, scored visually after about 3 weeks
From the text: Seeds of monocotyledonous and dicotyledonous weed plants and crop plants were placed in plastic or organic planting pots and covered with soil. The compounds of the invention, formulated in the form of wettable powders (WP) or as emulsion concentrates (EC), were then applied onto the surface of the covering soil as aqueous suspension or emulsion with addition of 0.5% additive at a water application rate of 600 l/ha (converted). After the treatment, the pots were placed in a greenhouse and kept under good growth conditions for the test plants. After about 3 weeks, the effect of the preparations was scored visually in comparison with untreated controls as percentages. For example, 100% activity=the plants have died, 0% activity=like control plants. Tables B1 to B14 below show the effects of selected compounds of the general formula (I) according to Tables I.1 to I.116 on various harmful plants and an application rate corresponding to 1280 g/ha or 320 g/ha, which were obtained by the experimental procedure mentioned above.

[12] = system: Poa annua; assay: Herbicidal post-emergence action (Experimental Part 2, C); format: in vivo; details: post-emergence (Part 2), application rate 1280 g/ha, rated visually after about 3 weeks
Procedure: as §1

[13] = system: Amaranthus retroflexus; assay: Herbicidal pre-emergence action (Experimental Part 2, D); format: in vivo; details: pre-emergence (Part 2), application rate 1280 g/ha, scored visually after about 3 weeks
From the text: as §2

[14] = system: Amaranthus retroflexus; assay: Herbicidal post-emergence action (Experimental Part 2, C); format: in vivo; details: post-emergence (Part 2), application rate 320 g/ha, rated visually after about 3 weeks
Procedure: as §1

Row | SMILES | Effect (inhibition of PS II activity) [1] | Matricaria inodora, herbicidal activity [3] [%] | Abutilon theophrasti, herbicidal activity [5] [%] | Setaria viridis, herbicidal activity [9] [%] | Amaranthus retroflexus, herbicidal activity [13] [%] | other results
1 | CSc1nnc(C(C)(C)C)c(=O)n1N [metribuzin, reference compound] | ++++ (inhibition≥90%) | – | – | – | – | –
2 | CCC(=O)OC1C(C)=CC(=O)N1c1cc(C(C)(C)C)no1 (centres unmarked) [I.5-290] | – | 100 | 100 | 90 | – | Abutilon theophrasti, herbicidal activity ([2]; application rate 1280 g/ha): 100%; Stellaria media, herbicidal activity [4]: 100%; Lolium rigidum, herbicidal activity [6]: 90%; Matricaria inodora, herbicidal activity ([7]; application rate 320 g/ha): 100%; Poa Annua, herbicidal activity ([8]; application rate 320 g/ha): 90%; Stellaria media, herbicidal activity ([10]; application rate 320 g/ha): 100%
3 | CC(=O)OC1C(C)=CC(=O)N1c1cc(C(C)(C)C)no1 (centres unmarked) [I.3-290] | – | 90 | 100 | 90 | 90 | Amaranthus retroflexus, herbicidal activity [11]: 90%; Abutilon theophrasti, herbicidal activity ([2]; application rate 1280 g/ha): 100%; Poa Annua, herbicidal activity [12]: 100%; Matricaria inodora, herbicidal activity ([7]; application rate 1280 g/ha): 100%; Poa Annua, herbicidal activity ([8]; application rate 1280 g/ha): 90%; Stellaria media, herbicidal activity ([10]; application rate 1280 g/ha): 100%
4 | CC1=CC(=O)N(c2cc(C)ns2)C1O (centres unmarked) [I.1-72] | ++++ (inhibition≥90%) | 100 | – | – | 90 | Amaranthus retroflexus, herbicidal activity [14]: 100%; Stellaria media, herbicidal activity ([10]; application rate 1280 g/ha): 90%
5 | CC1=CC(=O)N(c2cc(C(C)(C)C)no2)C1O (centres unmarked) [I.1-290, 5-Hydroxy-4-methyl-1-(3-tert-butyl-1,2-isoxazol-5-yl)-1,5-dihydro-2H-pyrrol-2-one] | ++++ (inhibition≥90%) | 100 | 90 | 90 | 100 | Abutilon theophrasti, herbicidal activity ([2]; application rate 320 g/ha): 100%; Stellaria media, herbicidal activity [4]: 100%; Matricaria inodora, herbicidal activity ([7]; application rate 320 g/ha): 100%; Poa Annua, herbicidal activity ([8]; application rate 320 g/ha): 90%; Stellaria media, herbicidal activity ([10]; application rate 320 g/ha): 100%
6 | CC1=CC(=O)N(c2cc(-c3ccccc3)ns2)C1O (centres unmarked) [I.1-86] | ++++ (inhibition≥90%) | – | – | – | – | –
7 | CC1=CC(=O)N(c2cc(C(C)C)no2)C1O (centres unmarked) [I.1-289] | – | 100 | 100 | 90 | 90 | Abutilon theophrasti, herbicidal activity ([2]; application rate 1280 g/ha): 100%; Amaranthus retroflexus, herbicidal activity [14]: 100%; Matricaria inodora, herbicidal activity ([7]; application rate 1280 g/ha): 100%; Poa Annua, herbicidal activity ([8]; application rate 1280 g/ha): 100%; Stellaria media, herbicidal activity ([10]; application rate 1280 g/ha): 100%
8 | CC1=CC(=O)N(c2cc(C(C)(C)C)n(C)n2)C1O (centres unmarked) [I.1-315] | ++++ (inhibition≥90%) | – | – | – | – | –

More lines, main results first:

Row | Effect (inhibition of PS II activity) [1] | SMILES | Matricaria inodora, herbicidal activity [3] [%] | Abutilon theophrasti, herbicidal activity [5] [%] | Setaria viridis, herbicidal activity [9] [%] | Amaranthus retroflexus, herbicidal activity [13] [%] | other results
9 | ++++ (inhibition≥90%) | CC1=CC(=O)N(c2cc(C(F)(F)F)ccn2)C1O (centres unmarked) [I.1-449] | – | – | – | – | –
10 | ++++ (inhibition≥90%) | CC1=CC(=O)N(c2cc(CC(C)C)no2)C1O (centres unmarked) [I.1-697] | – | – | – | – | –
11 | ++++ (inhibition≥90%) | CC1=CC(O)N(c2cc(-c3ccccc3)ns2)C1=O (centres unmarked) [I.2-86] | – | – | – | – | –
12 | ++ (70%>inhibition≥50%) | CC1=CC(O)N(c2cc(C)ns2)C1=O (centres unmarked) [I.2-72] | – | – | – | – | –
